Test results taken from paper PMC6057649, “Development of NanoLuc-PEST expressing Leishmania mexicana as a new drug discovery tool for axenic- and intramacrophage-based assays” (PLoS Neglected Tropical Diseases, 2018).

System: NanoLuc-PEST expressing L. mexicana axenic amastigotes
Experiment: microbe, parasite or virus in culture
Type: cell-based
Conditions: for Relative Bioluminescence (%) / viability at 2 µM / viability at 10 µM: 72 hours, relative to DMSO only control, n = 4; for viability at 2 µM / viability at 10 µM: Leishmania mexicana, read-out: Relative Bioluminescence (%)

CCc1ccc(C(NCc2nc(N)nc(N(C)C)n2)C(C)C)cc1 (stereo not shown) [MMV1019989]
Relative Bioluminescence (%) (2 µM compound): 59.90%
Relative Bioluminescence (%) (10 µM compound): 45.92%

O=C(Nc1ccc(F)c(-c2nc3ncc(-c4ccccc4)cc3[nH]2)c1)N1CCCC1 [MMV688372]
Relative Bioluminescence (%) (2 µM compound): 17.89%
Relative Bioluminescence (%) (10 µM compound): 6.87%

NCC(=O)N1CCn2c(nc(-c3ccccc3)c2Nc2ccc3c(c2)OCO3)C1 [MMV011691]
Relative Bioluminescence (%) (2 µM compound): 105.27%
Relative Bioluminescence (%) (10 µM compound): 73.17%

O=C(Nc1nnc(-c2ccc(Cl)s2)o1)c1ccc(Cl)s1 [MMV676501]
Relative Bioluminescence (%) (2 µM compound): -0.04%
Relative Bioluminescence (%) (10 µM compound): -0.69%
EC50 (hit compounds from the axenic amastigote screen, S3 Table, read-out: EC50, Axenic Amastigotes): 300 nM

COc1cc(CN2CCC3(C=Cc4ccccc43)CC2)cc2c1OCO2 [MMV688941]
Relative Bioluminescence (%) (2 µM compound): 78.23%
Relative Bioluminescence (%) (10 µM compound): 74.74%

COc1ccc(C2CC(c3cccs3)=NN2C(=O)c2ccco2)cc1OC (stereo not shown) [MMV019234]
Relative Bioluminescence (%) (2 µM compound): 106.08%
Relative Bioluminescence (%) (10 µM compound): 39.61%

CCN(CC)CCCCCCNc1cc(OC)cc2c(C)ccnc12 [MMV000063, Sitamaquine, reference compound]
viability at 2 µM (2 µM compound): 69.6%
viability at 10 µM (10 µM compound): 73.6%

CNC(=O)C1Cc2c([nH]c3cc(Cl)ccc23)C2(CCN(CCc3ccccc3)CC2)N1 (stereo not shown) [MMV031011]
Relative Bioluminescence (%) (2 µM compound): 110.57%
Relative Bioluminescence (%) (10 µM compound): 84.55%

CCCCS(=O)(=O)Nc1ccc2cnn(C)c2c1 [MMV687145]
Relative Bioluminescence (%) (2 µM compound): 132.61%
Relative Bioluminescence (%) (10 µM compound): 130.77%

Clc1cccc(C(c2ccc(CN3CCNCC3)cc2)n2ccnc2)c1 (stereo not shown) [MMV663250]
Relative Bioluminescence (%) (2 µM compound): 96.52%
Relative Bioluminescence (%) (10 µM compound): 69.77%

O=C(Cn1ccnc1[N+](=O)[O-])NCc1ccccc1 [MMV688773, Benznidazole, reference compound]
viability at 2 µM (2 µM compound): 110%
viability at 10 µM (10 µM compound): 132%

COc1ccc(-c2nn(C(C)C)c3ncnc(N)c23)cc1OC [MMV675993]
Relative Bioluminescence (%) (2 µM compound): 66.21%
Relative Bioluminescence (%) (10 µM compound): 27.37%

Nc1ncc(-c2ccc(C(F)(F)F)nc2)cc1-c1ccc(C(F)(F)F)nc1 [MMV668727]
Relative Bioluminescence (%) (2 µM compound): 68.46%
Relative Bioluminescence (%) (10 µM compound): 78.89%

O=C(COc1cccc(F)c1)Nc1nc(-c2ccccn2)cs1 [MMV676409]
Relative Bioluminescence (%) (2 µM compound): 37.25%
Relative Bioluminescence (%) (10 µM compound): 12.84%

Cc1ccc(-c2cc(C(=O)Nc3cccnc3)c3cc(Br)ccc3n2)cc1 [MMV016838]
Relative Bioluminescence (%) (2 µM compound): 44.83%
Relative Bioluminescence (%) (10 µM compound): 13.69%

Cc1noc(C)c1C(=O)N1CCCC(c2[nH]c3c(C)cccc3c2-c2ccncc2)C1 (stereo not shown) [MMV020623]
Relative Bioluminescence (%) (2 µM compound): 68.14%
Relative Bioluminescence (%) (10 µM compound): 86.96%

CC1=Nc2ccc(Cl)cc2C(c2ccccc2)N1CCNC(=O)CN(C)C (stereo not shown) [MMV688410]
Relative Bioluminescence (%) (2 µM compound): 114.60%
Relative Bioluminescence (%) (10 µM compound): 63.15%

Nc1ncnc2n[nH]c(Cc3cccc4ccccc34)c12 [MMV688469]
Relative Bioluminescence (%) (2 µM compound): 103.98%
Relative Bioluminescence (%) (10 µM compound): 53.28%

CCNC(=O)C(C)Nc1nc(-c2cccnc2)nc2sc(C)c(C)c12 (stereo not shown) [MMV1037162]
Relative Bioluminescence (%) (2 µM compound): 83.26%
Relative Bioluminescence (%) (10 µM compound): 85.96%

COCC(C)NC(=O)CSc1ncnc2sc(-c3ccccc3)cc12 (stereo not shown) [MMV676536]
Relative Bioluminescence (%) (2 µM compound): 84.93%
Relative Bioluminescence (%) (10 µM compound): 103.25%

CC(C(=O)N1CCCC1)N1CCN(S(=O)(=O)c2ccc(C(C)(C)C)cc2)CC1 (stereo not shown) [MMV020291]
Relative Bioluminescence (%) (2 µM compound): 117.25%
Relative Bioluminescence (%) (10 µM compound): 111.14%

c1ccc(Oc2ccc(-c3cc(N4CCOCC4)n[nH]3)cc2)cc1 [MMV045105]
Relative Bioluminescence (%) (2 µM compound): 73.02%
Relative Bioluminescence (%) (10 µM compound): 44.11%

Cc1cc(NC(=O)c2ccc(Oc3ccc(Cl)cc3O)o2)no1 [MMV688955]
Relative Bioluminescence (%) (2 µM compound): 95.96%
Relative Bioluminescence (%) (10 µM compound): 96.76%

CC(=O)Nc1ccc(-c2noc(CC3CCCN(Cc4cccc(F)c4C)C3)n2)cc1 (stereo not shown) [MMV689061]
Relative Bioluminescence (%) (2 µM compound): 77.60%
Relative Bioluminescence (%) (10 µM compound): 95.91%
